Results as given in ChEMBL document CHEMBL1152200, “Synthesis and biological evaluation of novel sulfonyl-naphthalene-1,4-diols as FabH inhibitors” (Bioorg Med Chem Lett, 2008).
Converted amounts (≈) assume the structure as drawn. The source made the active and inactive calls. No cut-off for these calls is given here.

Tests used:
[1] = biological target: T1, Beta-ketoacyl-ACP-synthase III (Plasmodium falciparum, UniProt O77078); experiment: Inhibition of Plasmodium falciparum FabH
T1 sequence (O77078 whole entry): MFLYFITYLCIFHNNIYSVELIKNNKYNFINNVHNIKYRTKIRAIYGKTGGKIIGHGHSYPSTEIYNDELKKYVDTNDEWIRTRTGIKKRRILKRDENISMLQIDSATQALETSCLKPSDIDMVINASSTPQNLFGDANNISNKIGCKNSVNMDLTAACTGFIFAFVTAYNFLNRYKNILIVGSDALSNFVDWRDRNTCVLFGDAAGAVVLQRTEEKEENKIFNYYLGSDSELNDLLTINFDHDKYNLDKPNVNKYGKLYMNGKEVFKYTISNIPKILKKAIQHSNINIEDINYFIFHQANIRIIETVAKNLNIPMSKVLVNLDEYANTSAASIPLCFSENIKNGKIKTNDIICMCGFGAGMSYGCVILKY

[2] = Inhibition of Escherichia coli FabH
[3] = biological target: T2, Mycobacterial beta-ketoacyl-[acyl-carrier-protein] synthase III (Mycobacterium tuberculosis, UniProt P9WNG3); experiment: Inhibition of Mycobacterium tuberculosis FabH
T2 sequence (P9WNG3 whole entry): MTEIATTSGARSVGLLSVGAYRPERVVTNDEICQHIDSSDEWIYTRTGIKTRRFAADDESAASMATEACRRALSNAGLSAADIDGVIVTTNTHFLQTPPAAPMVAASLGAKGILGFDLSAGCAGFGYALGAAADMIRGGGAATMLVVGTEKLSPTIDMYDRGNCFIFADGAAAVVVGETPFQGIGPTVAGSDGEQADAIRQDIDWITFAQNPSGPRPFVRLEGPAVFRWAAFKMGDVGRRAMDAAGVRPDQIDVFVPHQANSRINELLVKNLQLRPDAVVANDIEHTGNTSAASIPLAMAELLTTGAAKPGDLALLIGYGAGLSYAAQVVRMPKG

Plasmodium falciparum = experiment: Antiplasmodial activity against chloroquine-sensitive Plasmodium falciparum D6; type: functional, organism-based
[4] = biological target: T3, Beta-ketoacyl-ACP-synthase III (Plasmodium falciparum) (UniProt O77078); experiment: Inhibition of Plasmodium falciparum FabH at below 100 uM
T3 sequence (whole entry): T1 sequence (O77078 whole entry)

Escherichia coli [5] = experiment: Inhibition of Escherichia coli FabH at below 10 uM
Escherichia coli [6] = experiment: Antibacterial activity against Escherichia coli tolC mutant; type: functional
Escherichia coli [7] = experiment: Inhibition of Escherichia coli FabH assessed as restoration activity in presence of phosphate buffer after 16 hrs; set-up: scale not given: the % may be the effect or the level left

Row | Structure (SMILES) | IC50 [1] [nM] | IC50 [2] [nM] | IC50 [3] [nM] | IC50 (Plasmodium falciparum) [µg/mL] | Activity [4] | Activity (Escherichia coli [5]) | MIC99 (Escherichia coli [6]) [µg/mL] | Activity (Escherichia coli [7]) [%]
1 | Cc1ccc(S(=O)(=O)c2cc(O)c3cc4ccccc4cc3c2O)cc1 | 341 | 112 | 8.47 |  |  |  |  | 
2 | CC(=O)Nc1ccc(S(=O)(=O)c2cc(O)ccc2O)cc1 |  | > 10000 | 31.4 | 3.96 (≈ 12.9 µM) | inactive | inactive | > 90 | 
3 | CCCc1ccc(S(=O)(=O)c2cc(O)c3ccccc3c2O)cc1 | 72.6 | 9.7 | 3.09 |  |  |  |  | 
4 | O=S(=O)(c1ccccc1)c1cc(O)c2ccccc2c1O | 279 | 21.2 | 2.84 |  |  |  |  | 
5 | Cc1ccc(S(=O)(=O)c2cc(O)ccc2O)cc1 |  | > 10000 | 34.4 | 31.3 (≈ 119 µM) | inactive | inactive | > 90 | 
6 | O=S(=O)(c1ccc2ccccc2c1)c1cc(O)c2ccccc2c1O | 393 | 15.4 | 1.49 |  |  |  |  | 
7 | Cc1ccc(S(=O)(=O)c2ccc3ccccc3c2)cc1 |  | > 10000 | 138 | 8.74 (≈ 31 µM) | inactive | inactive | > 90 | 
8 | O=S(=O)(c1ccc(Cl)cc1)c1cc(O)c2ccccc2c1O | 129 | 8.8 | 3.61 | 3.23 (≈ 9.65 µM) |  |  |  | 
9 | CC(=O)Nc1ccc(S(=O)(=O)c2cc(O)c3ccccc3c2O)cc1 | 29.6 | 11.8 | 3.76 | 4.98 (≈ 13.9 µM) |  |  | 12.3 (≈ 34.4 µM) | 
10 | O=C(O)CCS(=O)(=O)c1cc(O)c2ccccc2c1O | 46.5 | 96.5 | 3.53 |  |  |  |  | 
11 | Cc1ccc(S(=O)(=O)C2=CC(=O)c3ccccc3C2=O)cc1 | 1420 | 187 | 1.99 |  |  |  |  | 
12 | CS(=O)(=O)c1cc(O)c2ccccc2c1O | 27.4 | 87.3 | 3.53 |  |  |  | 9.7 (≈ 40.7 µM) | 
13 | Cc1ccc(SC2=CC(=O)c3ccccc3C2=O)cc1 |  |  | 112 |  | inactive | inactive |  | 
14 | Cc1ccc(S(=O)(=O)c2cc(O)c3ccccc3c2O)cc1 | 73.6 | 13.6 | 0.61 | 7.69 (≈ 24.5 µM) |  |  | 14.1 (≈ 44.9 µM) | 90
